We go through 21 compounds from US10487092B2, “Pyrazolopyridinamines as MKNK1 and MKNK2 inhibitors” (BAYER PHARMA AKTIENGESELLSCHAFT, priority 2014, dated 2019).

The target in the assay is human full-length MKNK1 (Homo sapiens (Human), UniProt Q9BUB5, T344D). The assay is described as follows: MKNK1 kinase high ATP assay (TR-FRET). The class given is biochemical. Particulars: high ATP (2 mM), 15 min preincubation with enzyme; read-out: MKNK1 IC50. The procedure: MKNK1 Kinase High ATP Assay
human full-length MKNK1, sequence (Q9BUB5 other isoform, or with tags, fused parts or gaps T344D): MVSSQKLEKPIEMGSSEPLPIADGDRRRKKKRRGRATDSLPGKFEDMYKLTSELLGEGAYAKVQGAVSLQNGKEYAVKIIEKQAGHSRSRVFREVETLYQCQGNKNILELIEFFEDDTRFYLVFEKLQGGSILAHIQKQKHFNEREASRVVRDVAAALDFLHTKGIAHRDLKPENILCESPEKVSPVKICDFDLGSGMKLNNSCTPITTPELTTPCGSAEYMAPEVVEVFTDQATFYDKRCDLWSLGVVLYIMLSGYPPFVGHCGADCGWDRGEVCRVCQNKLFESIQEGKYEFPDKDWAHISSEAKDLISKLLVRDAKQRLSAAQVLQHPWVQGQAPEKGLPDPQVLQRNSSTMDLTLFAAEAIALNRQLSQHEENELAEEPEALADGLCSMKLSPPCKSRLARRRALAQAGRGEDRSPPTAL
MKNK1-inhibitory activity at high ATP of compounds of the present invention after their preincubation with MKNK1 was quantified employing the TR-FRET-based MKNK1 high ATP assay as described in the following paragraphs.
A recombinant fusion protein of Glutathione-S-Transferase (GST, N-terminally) and human full-length MKNK1 (amino acids 1-424 and T344D of accession number BAA 19885.1), expressed in insect cells using baculovirus expression system and purified via glutathione sepharose affinity chromatography, was purchased from Carna Biosciences (product no 02-145) and used as enzyme. As substrate for the kinase reaction the biotinylated peptide biotin-Ahx-IKKRKLTRRKSLKG (SEQ ID NO: 1, C-terminus in amide form) was used, which can be purchased e.g. from the company Biosyntan (Berlin-Buch, Germany).
For the assay 50 nL of a 100 fold concentrated solution of the test compound in DMSO was pipetted into a black low volume 384 well microtiter plate (Greiner Bio-One, Frickenhausen, Germany), 2 μL of a solution of MKNK1 in aqueous assay buffer [50 mM HEPES pH 7.5, 5 mM MgCl2, 1.0 mM dithiothreitol, 0.005% (v/v) Nonidet-P40 (Sigma)] was added and the mixture was incubated for 15 min at 22° C. to allow pre-binding of the test compounds to the enzyme before the start of the kinase reaction. Then the kinase reaction was started by the addition of 3 μL of a solution of adenosine-tri-phosphate (ATP, 3.3 mM=>final conc. in the 5 μL assay volume is 2 mM) and substrate (0.1 μM=>final conc. in the 5 μL assay volume is 0.06 μM) in assay buffer and the resulting mixture was incubated for a reaction time of 30 min at 22° C. The concentration of MKNK1 was adjusted depending of the activity of the enzyme lot and was chosen appropriate to have the assay in the linear range, typical concentrations were in the range of 0.003 μg/mL. The reaction was stopped by the addition of 5 μL of a solution of TR-FRET detection reagents (5 nM streptavidine-XL665 [Cisbio Bioassays, Codolet, France] and 1 nM anti-ribosomal protein S6 (pSer236)-antibody from Invitrogen [#44921G] and 1 nM LANCE EU-W1024 labeled ProteinG [Perkin-Elmer, product no. AD0071]) in an aqueous EDTA-solution (100 mM EDTA, 0.1% (w/v) bovine serum albumin in 50 mM HEPES pH 7.5).
The resulting mixture was incubated for 1 h at 22° C. to allow the formation of complex between the phosphorylated biotinylated peptide and the detection reagents. Subsequently the amount of phosphorylated substrate was evaluated by measurement of the resonance energy transfer from the Eu-chelate to the streptavidine-XL. Therefore, the fluorescence emissions at 620 nm and 665 nm after excitation at 350 nm were measured in a TR-FRET reader, e.g. a Rubystar (BMG Labtechnologies, Offenburg, Germany) or a Viewlux (Perkin-Elmer). The ratio of the emissions at 665 nm and at […] was taken as the measure for the amount of phosphorylated substrate. The data were normalised (enzyme reaction without inhibitor=0% inhibition, all other assay components but no enzyme=100% inhibition).
For orientation: TR-FRET usually uses a lanthanide donor and a delayed reading to cut background.
`CN(C)[C@H]1CCN(C(=O)[C@H]2CCc3c(sc4ncnc(Nc5cc6ccnn6cc5Cl)c34)C2)C1` [Example 59, (7S)-4-[(6-Chloropyrazolo[1,5-a]pyridin-5-yl)amino]-5,6,7,8-tetrahydro[1]benzothieno[2,3-d]pyrimidin-7-yl[(3S)-3-(dimethylamino)pyrrolidin-1-yl]methanone]: the half-maximal inhibitory concentration (IC50) amounted to 1 nM.
Under `COc1cn2nccc2cc1Nc1ncnc2sc3c(c12)CC[C@H](C(=O)NCCO)C3` [Example 83, (7S)—N-(2-Hydroxyethyl)-4-[(6-methoxypyrazolo[1,5-a]pyridin-5-yl)amino]-5,6,7,8-tetrahydro[1]benzothieno[2,3-d]pyrimidine-7-carboxamide] stands 3 nM; under `COc1cn2nccc2cc1Nc1ncnc2sc3c(c12)CC[C@H](C(=O)Nc1cccc(Cl)c1)C3` [Example 89, (7S)—N-(3-Chlorophenyl)-4-[(6-methoxypyrazolo[1,5-a]pyridin-5-yl)amino]-5,6,7,8-tetrahydro[1]benzothieno[2,3-d]pyrimidine-7-carboxamide], 24 nM; under `COc1cn2nccc2cc1Nc1ncnc2sc3c(c12)CC[C@H](C(=O)N1CCOC[C@H]1C)C3` [Example 126, (7S)-4-[(6-Methoxypyrazolo[1,5-a]pyridin-5-yl)amino]-5,6,7,8-tetrahydro[1]benzothieno[2,3-d]pyrimidin-7-yl[(3R)-3-methylmorpholin-4-yl]methanone], 1 nM.
In the case of “(7S)-4-[(6-Chloropyrazolo[1,5-a]pyridin-5-yl)amino]-5,6,7,8-tetrahydro[1]benzothieno[2,3-d]pyrimidin-7-yl(4-[2-dimethylamino)ethyl](methyl)aminopiperidin-1-yl)methanone [Example 62]”, the IC50 stood at 6 nM.
Under `CN(C)CCCN(CCO)C(=O)[C@H]1CCc2c(sc3ncnc(Nc4cc5ccnn5cc4Cl)c23)C1` [Example 63, (7S)4-[(6-Chloropyrazolo[1,5-a]pyridin-5-yl)amino]-N-[3-(dimethylamino)propyl]-N-(2-hydroxyethyl)-5,6,7,8-tetrahydro[1]benzothieno[2,3-d]pyrimidine-7-carboxamide] stands 15 nM; under `CC1(O)CN(C(=O)[C@H]2CCc3c(sc4ncnc(Nc5ccn6nccc6c5)c34)C2)C1` [Example 30, (3-Hydroxy-3-methylazetidin-1-yl)[(7S)-4-(pyrazolo[1,5-a]pyridin-5-ylamino)-5,6,7,8-tetrahydro[1]benzothieno[2,3-d]pyrimidin-7-yl]methanone], 16 nM; under `CN1C[C@H]2C[C@@H]1CN2C(=O)[C@H]1CCc2c(sc3ncnc(Nc4ccn5nccc5c4)c23)C1` [Example 42, [(1R,4R)-5-Methyl-2,5-diazabicyclo[2.2.1]hept-2-yl][(7S)-4-(pyrazolo[1,5-a]pyridin-5-ylamino)-5,6,7,8-tetrahydro[1]benzothieno[2,3-d]pyrimidin-7-yl]methanone], 11 nM.
Under `COc1cn2nccc2cc1Nc1ncnc2sc3c(c12)CC[C@H](C(=O)N1C[C@H]2C[C@@H]1CN2C)C3` [Example 122, (7S)-4-[(6-Methoxypyrazolo[1,5-a]pyridin-5-yl)amino]-5,6,7,8-tetrahydro[1]benzothieno[2,3-d]pyrimidin-7-yl[(1R,4R)-5-methyl-2,5-diazabicyclo[2.2.1]hept-2-yl]methanone] stands less than 1 nM.
Under `COc1cn2nccc2cc1Nc1ncnc2sc3c(c12)CC[C@H](C(=O)N(C)C(C)C)C3` [Example 105, (7S)-4-[(6-Methoxypyrazolo[1,5-a]pyridin-5-yl)amino]-N-methyl-N-(propan-2-yl)-5,6,7,8-tetrahydro[1]benzothieno[2,3-d]pyrimidine-7-carboxamide] stands 2 nM; under `CN(CCO)C(=O)[C@H]1CCc2c(sc3ncnc(Nc4cc5ccnn5cc4Cl)c23)C1` [Example 55, (7S)-4-[(6-Chloropyrazolo[1,5-a]pyridin-5-yl)amino]-N-(2-hydroxyethyl)-N-methyl-5,6,7,8-tetrahydro[1]benzothieno[2,3-d]pyrimidine-7-carboxamide], 18 nM; under `CN(C)C(=O)[C@H]1CCc2c(sc3ncnc(Nc4cc5ccnn5cc4Cl)c23)C1` [Example 45, (7S)-4-[(6-Chloropyrazolo[1,5-a]pyridin-5-yl)amino]-N,N-dimethyl-5,6,7,8-tetrahydro[1]benzothieno[2,3-d]pyrimidine-7-carboxamide], 12 nM.
Regarding `COc1cn2nccc2cc1Nc1ncnc2sc3c(c12)CC[C@H](C(=O)N1C[C@@H]2C[C@H]1CN2C)C3` [Example 121, (7S)-4-[(6-Methoxypyrazolo[1,5-a]pyridin-5-yl)amino]-5,6,7,8-tetrahydro[1]benzothieno[2,3-d]pyrimidin-7-yl[(1S,4S)-5-methyl-2,5-diazabicyclo[2.2.1]hept-2-yl]methanone], the concentration for half-maximal inhibition (IC50) was determined as 1 nM.
Then `CCN(CCN(C)C)C(=O)[C@H]1CCc2c(sc3ncnc(Nc4cc5ccnn5cc4OC)c23)C1` [Example 115, (7S)—N-[2-(Dimethylamino)ethyl]-N-ethyl-4-[(6-methoxypyrazolo[1,5-a]pyridin-5-yl)amino]-5,6,7,8-tetrahydro[1]benzothieno[2,3-d]pyrimidine-7-carboxamide], with 1 nM; and `CCCCN(C)C(=O)[C@H]1CCc2c(sc3ncnc(Nc4cc5ccnn5cc4OC)c23)C1` [Example 97, (7S)—N-Butyl-4-[(6-methoxypyrazolo[1,5-a]pyridin-5-yl)amino]-N-methyl-5,6,7,8-tetrahydro[1]benzothieno[2,3-d]pyrimidine-7-carboxamide], with 1 nM.
Then `CN1C[C@@H]2C[C@H]1CN2C(=O)[C@H]1CCc2c(sc3ncnc(Nc4cc5ccnn5cc4Cl)c23)C1` [Example 72, (7S)-4-[(6-Chloropyrazolo[1,5-a]pyridin-5-yl)amino]-5,6,7,8-tetrahydro[1]benzothieno[2,3-d]pyrimidin-7-yl[(1S,4S)-5-methyl-2,5-diazabicyclo[2.2.1]hept-2-yl]methanone], with 14 nM; and `O=C([C@H]1CCc2c(sc3ncnc(Nc4ccn5nccc5c4)c23)C1)N1CCC(F)(F)C1` [Example 34, (3,3-Difluoropyrrolidin-1-yl)[(7S)-4-(pyrazolo[1,5-a]pyridin-5-ylamino)-5,6,7,8-tetrahydro[1]benzothieno[2,3-d]pyrimidin-7-yl]methanone], with 71 nM; and `COc1cn2nccc2cc1Nc1ncnc2sc3c(c12)CC[C@H](C(=O)N1CCN(CCN(C)C)CC1)C3` [Example 114, 4-[2-(Dimethylamino)ethyl]piperazin-1-yl(7S)-4-[(6-methoxypyrazolo[1,5-a]pyridin-5-yl)amino]-5,6,7,8-tetrahydro[1]benzothieno[2,3-d]pyrimidin-7-ylmethanone], with less than 1 nM.
Under `COCCN(CCOC)C(=O)[C@H]1CCc2c(sc3ncnc(Nc4cc5ccnn5cc4Cl)c23)C1` [Example 71, (7S)-4-[(6-Chloropyrazolo[1,5-a]pyridin-5-yl)amino]-N,N-bis(2-methoxyethyl)-5,6,7,8-tetrahydro[1]benzothieno[2,3-d]pyrimidine-7-carboxamide] stands 12 nM; under `C[C@@H]1CN(C(=O)[C@H]2CCc3c(sc4ncnc(Nc5ccn6nccc6c5)c34)C2)C[C@@H](C)O1` [Example 10, [(2R,6R)-2,6-Dimethylmorpholin-4-yl][(7S)-4-(pyrazolo[1,5-a]pyridin-5-ylamino)-5,6,7,8-tetrahydro[1]benzothieno[2,3-d]pyrimidin-7-yl]methanone], 33 nM; under `CN(C)C1CCN(C(=O)[C@H]2CCc3c(sc4ncnc(Nc5cc6ccnn6cc5Cl)c34)C2)CC1` [Example 61, (7S)-4-[(6-Chloropyrazolo[1,5-a]pyridin-5-yl)amino]-5,6,7,8-tetrahydro[1]benzothieno[2,3-d]pyrimidin-7-yl[4-(dimethylamino)piperidin-1-yl]methanone], 13 nM.

Usually IC50 stands for the midpoint of a concentration-inhibition curve.
